Laboratory results published in patent publication US8778871B2 (Takeda Pharmaceutical Company Limited, priority 2004, dated 2014).
Non-standard residues stand in square brackets, D forms with d. Residues, ends and D or L forms follow the SMILES beside them. *: point of attachment. Propanoyl(3-(3-pyridyl)) = O=C(CCc1cccnc1)*; Arg(Me) = CNC(=N)NCCC[C@H](N)C(=O)O; d4Pal = N[C@H](Cc1ccncc1)C(=O)O; azaGly = NNC(=O)O

Tests used:
hOT7T175 [1] = target: T1, hOT7T175 (Homo sapiens, UniProt Q969F8); assay: Intracellular Ca ion level-increasing activity using FLIPR (180 seconds; specific activity to Metastin (1-54)); type: cell-based; conditions: hOT7T175/CHO, change in intracellular calcium ion level for 180 seconds, Tables 21-23
T1 construct: expressed in transfected cells

hOT7T175 [2] = target: T2, hOT7T175 (Homo sapiens, UniProt Q969F8, L364H); type: cell-based; conditions: hOT7T175/CHO, FLIPR, evaluation for 40 seconds after initiation of the reaction
T2 construct: expressed in transfected cells
Protocol: The intracellular Ca ion level-increasing activity was measured using FLIPR as in TEST EXAMPLE 2.

[3] = Blood testosterone level decreasing effect in mature male rat (2 mM peptide solution, ALZET osmotic pump); type: in vivo; conditions: 2 mM peptide solution in distilled water, ALZET osmotic pump s.c., 6 days, Tables 28 and 29
Protocol: (§1) This peptide solution was filled in 5 ALZET osmotic pumps (Model 2001, 0.2 ml in volume, release rate: 0.001 ml/hr, DURECT Corporation). The ALZET pumps filled with the peptide solution were implanted subcutaneously in 5 CD(SD)IGS male rats of 9 weeks old after birth (Charles River Japan, Inc.) on the back under ether anesthesia by one pump for one animal. For negative control, distilled water (Otsuka Pharmaceutical Co., Ltd.) was filled in 5 ALZET osmotic pumps, which were similarly implanted in 5 male CD(SD)IGS rats (Charles River Japan, Inc.), respectively. These pump-implanted rats were fed for 6 days under normal feeding conditions. After weighing, the animal was decapitated to collect blood. After 0.03 ml/ml blood of aprotinin solution (Trasylol, Bayer) containing 0.1 mg/ml EDTA.2Na was added to blood, the mixture was centrifuged at 1,800 G for 25 minutes to isolate/recover plasma. From the plasma obtained, 0.05 ml was applied to radioimmunoassay (DPC.Total Testosterone Kit, Diagnostic Products Corporation) to measure the plasma testosterone level of each rat. The value below the limit of measurement (0.04 ng/ml of plasma level) in radioimmunoassay was treated as 0. A mean value of the testosterone levels from 5 rats receiving the peptide was calculated and a relative value (percent) of the mean value to a mean value from 5 rats receiving distilled water.

[4] = Blood testosterone level decreasing effect in mature male rat (0.1 mM peptide solution); type: in vivo
Protocol: as §1
In a manner similar to TEST EXAMPLE 14, evaluation was made using 0.1 mM peptide solution and a part of the results obtained are shown in TABLE 30.

[5] = Action of reducing testosterone level in blood in mature male rat (1 mM peptide in 50% DMSO, ALZET osmotic pump); type: in vivo; conditions: 1 mM peptide in 50% DMSO aqueous solution, ALZET osmotic pump s.c., six days

T1 sequence (Q969F8 whole entry L364H): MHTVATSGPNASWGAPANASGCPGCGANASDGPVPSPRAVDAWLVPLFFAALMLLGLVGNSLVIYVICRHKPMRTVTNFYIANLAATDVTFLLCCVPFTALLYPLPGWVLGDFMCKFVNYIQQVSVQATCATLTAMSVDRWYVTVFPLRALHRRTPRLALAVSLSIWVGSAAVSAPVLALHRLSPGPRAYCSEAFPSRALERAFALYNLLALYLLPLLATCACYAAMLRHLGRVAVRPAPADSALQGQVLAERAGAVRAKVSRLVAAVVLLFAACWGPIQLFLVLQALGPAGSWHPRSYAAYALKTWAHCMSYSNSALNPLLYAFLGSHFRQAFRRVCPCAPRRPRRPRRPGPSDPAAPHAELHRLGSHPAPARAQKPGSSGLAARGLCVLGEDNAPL
T2 sequence (Q969F8 whole entry L364H): as above

Row | SMILES | intracellular Ca ion level-increasing activity [specific activity to Metastin (1-54)] (hOT7T175 [1]) | Specific Act. (EC50/MS10 EC50) (hOT7T175 [2]) | Teststerone level in Blood [3] | Teststerone level in Blood [4] | Testosterone level in Blood [5]
1 | CNC(=N)NCCC[C@H](NC(=O)[C@H](CC(C)C)NC(=O)NNC(=O)[C@H](Cc1ccccc1)NC(=O)[C@H](CO)NC(=O)[C@H](CC(N)=O)NC(=O)[C@@H](Cc1ccncc1)NC(=O)[C@H](N)Cc1ccc(O)cc1)C(=O)N[C@@H](Cc1ccccc1)C(N)=O [Compound No. 305, D-Tyr-D-Pya(4)-Asn-Ser-Phe-AzaGly-Leu-Arg(Me)-Phe-NH2] (H-[dY][d4Pal]NSF[azaGly]L[Arg(Me)]F-NH2) | 5 | 2.0 | 2% | 48% | 2%
2 | CNC(=N)NCCC[C@H](NC(=O)[C@H](CC(C)C)NC(=O)NNC(=O)[C@H](Cc1ccccc1)NC(=O)[C@H](CO)NC(=O)[C@H](CC(N)=O)NC(=O)CCc1cccnc1)C(=O)N[C@@H](Cc1ccccc1)C(N)=O [Compound No. 322, 3-(3-Pyridyl)propionyl-Asn-Ser-Phe-AzaGly-Leu-Arg(Me)-Phe-NH2] ({Propanoyl(3-(3-pyridyl))}-NSF[azaGly]L[Arg(Me)]F-NH2) | 1 | 5.4 | – | – | –
